“And” between values parts separate entries of the source, which are not always exact repeats. Identical values can stand only once.

The record followed here is patent US9370189B2, “Controlling Pseudomonas aeruginosa persister cells with GM-CSF” (priority 2012, dated 2016).

Series [1] deals with membrane fractions of P. aeruginosa. The series can be described thus: GM-CSF binding to non-denatured cellular fractions (non-denatured PAGE, Western blotting). The arrangement: species or system Pseudomonas aeruginosa. The conditions noted are these: P. aeruginosa fractions incubated with GM-CSF, Western blotting (FIG. 22). As to the method:
Cell fractionation was done as described by George et al. (1986) with some modification. Briefly, cell pellets from stationary phase PAO1 were suspended in 1 ml of PBS buffer (pH7.2) containing 0.2 mg/mL lysozyme, protease inhibitor cocktail (Roche), chilled on ice, and sonicated (20 bursts, 10 s each at 70 W) with a Sonicator Q500 (Qsonica). The unbroken cells and debris were removed by centrifugation at 15,600×g for 5 min at 4° C. The supernatant was transferred to a 1.5 mL centrifuge tube, and the cell membranes were precipitated from the supernatant by centrifugation in a microcentrifuge at 15,600×g for 1 hour at 4° C. The supernatant was saved as cytoplasm fraction. To further separate inner and outer membrane proteins, the membrane pellets were thoroughly suspended in 0.1 ml of PBS buffer supplemented with 1% Sarkosyl by repeated pipetting. Following incubation for 30 minutes with intermittent mixing at room temperature, the suspension was centrifuged at 15,600×g for 1 hour at 4° C. […]
Different cellular components (30 μL) from P. aeruginosa were mixed with GM-CSF (20 ng) and incubated at room temperature for 2 hours. […] The separated samples were then subjected to Western blotting and detected by Human GM-CSF Monoclonal Antibody as described in whole cell binding assay.

A further series relates to P. aeruginosa PAO1. As to the kind of experiment: Effect of GM-CSF on planktonic PAO1 cells (total viable cells and persisters) at exponential phase, alone and with antibiotic, CFU by drop plate. Format: cell-based, Pseudomonas aeruginosa. The conditions noted are these: for % change in avg. CFU/ml after adding factor + CIP / % change in avg. CFU/ml after adding factor + GEN / % change in avg. CFU/ml after adding factor + TET / % change in avg. CFU/ml after adding factor + TOB / average CFU/mL of persisters reduced by / average CFU/mL of total viable cells reduced by: planktonic PAO1; for % change in avg. CFU/ml after adding factor + CIP: 2.43 pg/mL GM-CSF with 200 μg/mL ciprofloxacin; for % change in avg. CFU/ml after adding factor + GEN: 2.43 pg/mL GM-CSF with 200 μg/mL gentamicin; for % change in avg. CFU/ml after adding factor + TET: 2.43 pg/mL GM-CSF with 200 μg/mL tetracycline; for % change in avg. CFU/ml after adding factor + TOB: 2.43 pg/mL GM-CSF with 200 μg/mL tobramycin; for average CFU/mL of persisters reduced by / average CFU/mL of total viable cells reduced by: reduction. The procedure:
This Example describes the treatment of planktonic P. aeruginosa PAO1, PDO300 and Escherichia coli K12, with GM-CSF introduced directly or together with an antibiotic to test the synergy. All experiments were conducted with cells harvested from exponential phase subcultures with an optical density at 600 nm (OD600) of 0.3 to 0.4.
In brief, after preparing an overnight culture of the tested strain in 25 ml LB medium, a subculture was prepared with an OD600 of 0.01 in 50 mL LB medium. The subculture was incubated at 37° C. with shaking at 200 rpm for 3-4 h, till an OD600 of 0.3 to 0.4 was reached. The exponential phase subculture was then divided equally into two centrifuge tubes, each containing 25 mL of the subculture. The subcultures were washed twice with 0.85% NaCl buffer by vortexing and then centrifuging at 4° C., 8000 rpm for 10 min each time. The washed subcultures/cells were resuspended in 25 mL 0.85% NaCl buffer and vortexed gently for 1 min. One of the tubes of subculture was selected for isolation of persisters by adding 200 μg/mL ciprofloxacin (for PAO1 and PDO300 strains) or 100 μg/mL ampicillin (for E. coli K12 strain). After adding the antibiotic for persister isolation, the subculture was incubated at 37° C., shaking at 200 rpm for 3.5 h.
To test the effects of GM-CSF on viability of persisters, the second tube was used to quantify the total number of viable cells and 1 mL of the washed persister cells was divided into 6 microcentrifuge tubes; 3 were control and the other 3 were GM-CSF treatment samples. In the treatment samples, GM-CSF was added to a concentration of 2.43 pg/mL (or 0.17 pM), the same as found in healthy human bodies. The control samples were supplemented with the same concentration of PBS and BSA as present in 2.43 pg/mL (or 0.17 pM) GM-CSF samples.
After incubating at 37° C. for 1 h with shaking at 200 rpm, the samples were plated on LB agar plates (15 g/L bacto agar) using drop plate method. The agar plates were then incubated for 24 h at 37° C. to count the total number of persister cells and understand the effect of 0.17 pM GM-CSF on the viability of persister cells.
To test the synergy with antibiotics, the above samples were then incubated at 37° C. for 3.5 h with shaking at 200 rpm after adding the selected antibiotic. After 3.5 h, the CFU of samples was quantified in the same way to understand if there is any synergy between GM-CSF and antibiotic. Similar treatments were performed on the total population in exponential phase as well. Apart from exponential phase, the synergistic effects of GM-CSF with antibiotics on total viable cells and persisters were also evaluated at stationary phase but PBS buffer (pH=7.4) was used in the experiments instead of 0.85% NaCl solution. Moreover, the 1 h and 3.5 h treatments were performed as co-treatments.

In the next series the test system is biofilm cells of PDO300. As to the kind of experiment: Synergistic effects of GM-CSF, tobramycin and alginate lyase on biofilm cells of PDO300. Format: cell-based, Pseudomonas aeruginosa. The conditions noted are these: 2.43 pg/mL GM-CSF with 200 μg/mL tobramycin, 3.5 h. The procedure: This Example describes an experiment, similar to the one described in Example 5 with respect to the planktonic cells of PDO300, which was performed on the biofilm cells of PDO300.
In brief, after preparing an overnight culture, it was subcultured to an OD600 of 0.01 in a total volume of 20 mL M63 medium with 316L stainless steel coupons (1.75 cm×1 cm). The biofilm was grown for 24 h at 37° C. After incubation, the coupons were washed by gently dipping in 0.85% NaCl buffer twice using tweezers and then placed in new empty petri dishes.
To test the synergistic effects of GM-CSF (2.43 pg/mL), tobramycin (200 μg/mL) and alginate lyase (0.5 mg/mL), a total of 8 coupons were included. These 8 coupons were placed in 8 microcentrifuge tubes with 2 mL of 0.85% NaCl buffer. There were 4 treatments samples, with 2 coupons for each treatment (i) Control (ii) […] Tobramycin (iii) 200 μg/mL Tobramycin and 2.43 pg/mL GM-CSF and (iv) 200 μg/mL Tobramycin, 2.43 pg/mL GM-CSF and 0.5 mg/mL Alginate lyase. […]
After incubation, each coupon was gently washed with 0.85% NaCl buffer and placed in a test tube with 2 mL of 0.85% NaCl buffer. […] The CFU was counted after incubation at 37° C. for 24 h to quantify the total number of viable cells. The synergistic effects of GM-CSF, tobramycin and alginate lyase were quantified based on CFU data.

Setting [2] is: 2.43 pg/ml GM-CSF with 200 μg/mL ciprofloxacin.
Setting [3] is: 2.43 pg/ml GM-CSF with 200 μg/mL gentamicin.
[4] abbreviates: 2.43 pg/ml GM-CSF with 200 μg/mL tetracycline.
[5] abbreviates: 2.43 pg/ml GM-CSF with 200 μg/mL tobramycin.

Regarding “GM-CSF: granulocyte macrophage-colony stimulating factor, a cytokine secreted by macrophages; recombinant human GM-CSF (R&D systems) in binding tests”, in series [1], the “binding to cellular components” value was “preferentially binds to membrane fractions”. Also, the “persister cells rendered sensitive to the antibiotic ciprofloxacin” value in the series with P. aeruginosa PAO1 (P. aeruginosa persister cells, GM-CSF at 2.43 pg/mL) is “more than 97%”. For the same substance, in the series on P. aeruginosa PAO1 (persisters), the “% change in avg. CFU/ml after adding factor + CIP” value is on record as −97.95%, the “% change in avg. CFU/ml after adding factor + GEN” value is −59.31%, the “% change in avg. CFU/ml after adding factor + TET” value was −65.66% and the “% change in avg. CFU/ml after adding factor + TOB” value was −81.42%. In addition, in the series on P. aeruginosa PAO1 (setting [2]), the “average CFU/mL of persisters reduced by” value is listed as 97.95% and the “average CFU/mL of total viable cells reduced by” value is 15.38%. In the series with P. aeruginosa PAO1 (setting [3]), the “average CFU/mL of persisters reduced by” value is recorded as 59.31% and the “average CFU/mL of total viable cells reduced by” value was 10.53%. For the same substance, in the series on P. aeruginosa PAO1 (setting [4]), the “average CFU/mL of persisters reduced by” value is 65.66% and the “average CFU/mL of total viable cells reduced by” value stood at 23.06%. In the series with P. aeruginosa PAO1 (setting [5]), the “average CFU/mL of persisters reduced by” value was 81.42% and the “average CFU/mL of total viable cells reduced by” value amounted to 34.62%. For the same substance, in the series with P. aeruginosa PAO1 (total viable cells, planktonic PAO1, exponential phase, 2.43 pg/mL GM-CSF alone, 1 h), the “% change in avg. CFU/ml after adding factor” value was −2.22% and −5.00% and −2.94% and −1.69%. Further, in the series on P. aeruginosa PAO1 (total viable cells), the “% change in avg. CFU/ml after adding factor + CIP” value is listed as −15.38%, the “% change in avg. CFU/ml after adding factor + GEN” value was −10.53%, the “% change in avg. CFU/ml after adding factor + TET” value was −23.08% and the “% change in avg. CFU/ml after adding factor + TOB” value is listed as −34.62%. Moreover, the “additional killing of biofilm cells compared to the 200 μg/mL tobramycin treatment alone” value in the series on biofilm cells of PDO300 was −24.7±5.3%.
